Assay results: patent publication US10077261B2, “Imidazolin-5-one derivative useful as FASN inhibitors for the treatment of cancer” (Janssen Pharmaceutica NV, priority 2012, dated 2018)

What was measured:
[1] = tested on: A2780 ovarian cells; test: A2780 ovarian cell proliferation assay in lipid reduced medium, without palmitate (MTT); assay type: cell-based; details: Homo sapiens, A2780, 96 h; read-out: pIC50 A2780 Ovarian Cell, Without Palmitate (converted)
[2] = molecular target: T1, hFASN enzyme (full length) (Homo sapiens, UniProt P49327); test: Fatty Acid Synthase (FASN) inhibition scintillation proximity assay; assay type: biochemical; details: for inhibition at 10 µM: read-out: Human FASN % inhibition @ 10 μM, 10 μM test compound; for IC50: read-out: Human FASN pIC50 (converted)
T1 construct: 10 μL hFASN enzyme (full length, 300 ng, purified in house); made in house
Summary of the method: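 Purified full-length hFASN (300 ng) converts ^3H-acetyl-CoA plus malonyl-CoA to ^3H-palmitate in 100 mM KH2PO4 pH 7.5, 1 mM DTT; compounds tested at 0.01–30 μM. Product captured on streptavidin imaging beads and read by LEADseeker at 610 nm after ≥24 h; 4-parameter logistic fit versus controls.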

[3] = tested on: A2780 ovarian cells; test: A2780 ovarian cell proliferation assay in lipid reduced medium, with palmitate (MTT); assay type: cell-based; details: Homo sapiens, A2780, 96 h; read-out: pIC50 A2780 Ovarian Cell, With Palmitate (converted)
Summary of the method: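 Seeded cells were switched next day to lipid-reduced serum, exposed to compound and 25 μM palmitate complexed with fatty-acid-free BSA, and incubated 96 h. Proliferation was then determined by MTT absorbance at 544 nm, with a best-fit curve of signal against concentration.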

T1 sequence (P49327 whole entry): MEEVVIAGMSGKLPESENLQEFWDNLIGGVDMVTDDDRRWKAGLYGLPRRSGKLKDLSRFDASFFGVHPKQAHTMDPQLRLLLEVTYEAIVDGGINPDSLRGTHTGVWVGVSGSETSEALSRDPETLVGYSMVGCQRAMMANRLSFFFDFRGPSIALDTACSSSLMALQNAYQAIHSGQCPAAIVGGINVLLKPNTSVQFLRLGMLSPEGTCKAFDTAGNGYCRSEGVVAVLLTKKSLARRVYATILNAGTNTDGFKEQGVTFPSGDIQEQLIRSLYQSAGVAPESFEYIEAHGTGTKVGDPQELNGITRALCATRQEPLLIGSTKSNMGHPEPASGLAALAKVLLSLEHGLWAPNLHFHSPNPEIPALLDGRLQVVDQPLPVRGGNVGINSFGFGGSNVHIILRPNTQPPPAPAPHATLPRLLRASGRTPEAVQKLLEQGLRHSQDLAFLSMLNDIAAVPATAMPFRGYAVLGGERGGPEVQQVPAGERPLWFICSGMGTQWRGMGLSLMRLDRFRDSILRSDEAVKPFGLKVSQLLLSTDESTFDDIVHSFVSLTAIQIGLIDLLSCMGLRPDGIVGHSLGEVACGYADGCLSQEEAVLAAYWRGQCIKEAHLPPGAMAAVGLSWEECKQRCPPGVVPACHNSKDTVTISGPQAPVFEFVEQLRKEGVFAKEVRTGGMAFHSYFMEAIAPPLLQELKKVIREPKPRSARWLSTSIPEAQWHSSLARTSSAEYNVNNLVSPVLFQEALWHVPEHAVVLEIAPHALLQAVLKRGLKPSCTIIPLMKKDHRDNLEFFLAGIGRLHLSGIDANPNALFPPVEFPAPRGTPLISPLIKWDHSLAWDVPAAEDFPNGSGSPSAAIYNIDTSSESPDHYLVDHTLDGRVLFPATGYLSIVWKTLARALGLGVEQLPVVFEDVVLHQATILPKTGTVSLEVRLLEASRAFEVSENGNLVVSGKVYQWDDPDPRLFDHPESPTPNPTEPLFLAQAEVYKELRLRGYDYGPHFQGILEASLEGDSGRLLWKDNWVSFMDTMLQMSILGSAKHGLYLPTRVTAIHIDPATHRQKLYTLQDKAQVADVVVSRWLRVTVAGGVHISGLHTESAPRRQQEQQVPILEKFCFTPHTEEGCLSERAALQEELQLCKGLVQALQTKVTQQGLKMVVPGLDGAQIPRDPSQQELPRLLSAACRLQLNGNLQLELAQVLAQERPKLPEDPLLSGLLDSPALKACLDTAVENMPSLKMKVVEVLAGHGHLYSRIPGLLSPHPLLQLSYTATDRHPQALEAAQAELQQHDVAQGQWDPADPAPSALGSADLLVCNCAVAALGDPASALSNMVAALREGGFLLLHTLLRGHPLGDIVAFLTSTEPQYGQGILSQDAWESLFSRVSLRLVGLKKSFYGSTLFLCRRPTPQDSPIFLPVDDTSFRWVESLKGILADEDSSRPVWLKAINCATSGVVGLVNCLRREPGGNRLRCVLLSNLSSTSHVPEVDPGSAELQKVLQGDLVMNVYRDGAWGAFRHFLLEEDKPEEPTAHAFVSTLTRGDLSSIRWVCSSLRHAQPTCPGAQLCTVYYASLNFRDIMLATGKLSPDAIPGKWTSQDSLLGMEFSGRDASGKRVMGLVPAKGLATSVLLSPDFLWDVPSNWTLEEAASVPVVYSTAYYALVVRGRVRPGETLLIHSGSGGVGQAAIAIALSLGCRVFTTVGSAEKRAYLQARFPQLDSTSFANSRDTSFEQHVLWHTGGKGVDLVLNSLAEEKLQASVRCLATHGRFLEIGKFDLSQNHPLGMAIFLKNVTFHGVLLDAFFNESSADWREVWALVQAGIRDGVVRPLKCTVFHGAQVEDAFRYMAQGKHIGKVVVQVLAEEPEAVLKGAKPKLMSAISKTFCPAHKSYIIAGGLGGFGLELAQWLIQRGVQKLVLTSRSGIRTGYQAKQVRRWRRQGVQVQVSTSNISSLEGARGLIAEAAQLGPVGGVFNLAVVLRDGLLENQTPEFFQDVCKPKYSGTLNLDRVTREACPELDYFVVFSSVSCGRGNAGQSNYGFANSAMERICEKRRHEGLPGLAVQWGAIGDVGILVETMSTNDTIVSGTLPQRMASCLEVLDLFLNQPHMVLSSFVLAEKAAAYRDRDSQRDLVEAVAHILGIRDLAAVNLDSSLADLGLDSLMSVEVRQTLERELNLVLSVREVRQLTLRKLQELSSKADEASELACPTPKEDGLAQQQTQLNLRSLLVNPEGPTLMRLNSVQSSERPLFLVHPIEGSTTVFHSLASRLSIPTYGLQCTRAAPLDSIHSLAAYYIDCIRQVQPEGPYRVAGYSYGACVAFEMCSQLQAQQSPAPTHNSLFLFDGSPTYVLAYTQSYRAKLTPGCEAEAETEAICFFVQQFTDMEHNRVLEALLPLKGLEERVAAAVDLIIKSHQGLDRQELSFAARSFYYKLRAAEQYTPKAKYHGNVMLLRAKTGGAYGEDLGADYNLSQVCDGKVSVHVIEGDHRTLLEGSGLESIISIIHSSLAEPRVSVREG

| SMILES | IC50 [1] | inhibition at 10 µM [2] | IC50 [2] | IC50 [3] |
| --- | --- | --- | --- | --- |
| Cc1ccc2ccc(-c3ccc(C4=NC5(CC5)C(=O)N4CC4CN(C(=O)C5CC5)C4)cc3)c(F)c2n1 [compound 561, 6-{[1-(Cyclopropylcarbonyl)azetidin-3-yl]methyl}-5-[4-(8-fluoro-2-methylquinolin-7-yl)phenyl]-4,6-diazaspiro[2.4]hept-4-en-7-one] | > 10 µM | 56% | ~7.24 µM | > 10 µM |
| O=C(C1CC1)N1CC[C@@H](CN2C(=O)C3(CC3)N=C2c2ccc(-c3cccc(C(F)(F)F)c3)cc2)C1 [compound 126, 6-{[(3R)-1-(Cyclopropylcarbonyl)pyrrolidin-3-yl]methyl}-5-[3′-(trifluoromethyl)biphenyl-4-yl]-4,6-diazaspiro[2.4]hept-4-en-7-one] | > 10 µM | 96.3% | 0.646 µM | > 10 µM |
| Cc1cn(C)c2ccc(-c3ccc(C4=NC5(CC5)C(=O)N4CC4CN(C(=O)C5CC5)C4)c(F)c3)cc12 [compound 573, 6-{[1-(Cyclopropylcarbonyl)azetidin-3-yl]methyl}-5-[4-(1,3-dimethyl-1H-indol-5-yl)-2-fluorophenyl]-4,6-diazaspiro[2.4]hept-4-en-7-one] | 0.0537 µM | 88% | 0.166 µM | 1.38 µM |
| Cc1cc(-c2ccc3nn(C)c(C#N)c3c2)ccc1C1=NC2(CC2)C(=O)N1CC1CN(C(=O)C2CC2)C1 [compound 610] | 2.88 µM | 87% | 1.05 µM | 4.57 µM |
| Cn1cc(-c2ccc(-c3ccc(C4=NC5(CC5)C(=O)N4C[C@@H]4CCN(C(=O)C5(C)CC5)C4)c(F)c3)cc2)cn1 [compound 364, (R)-5-(3-fluoro-4′-(1-methyl-1H-pyrazol-4-yl)-[1,1′-biphenyl]-4-yl)-6-((1-(1-methylcyclopropanecarbonyl)pyrrolidin-3-yl)methyl)-4,6-diazaspiro[2.4]hept-4-en-7-one] | ~0.00295 µM | 89% | 0.0575 µM | 0.229 µM |
| Cc1cc(-c2cccc(NC(=O)C3CC3)c2)ccc1C1=NC2(CC2)C(=O)N1CC1CN(C(=O)C2CC2)C1 [compound 571, N-[4′-(6-{[1-(Cyclopropylcarbonyl)azetidin-3-yl}methyl]-7-oxo-4,6-diazaspiro[2.4]hept-4-en-5-yl)-3′-methylbiphenyl-3-yl]cyclopropanecarboxamide] | 0.977 µM | 79% | 1.38 µM | > 10 µM |
| COCc1c2cc(-c3ccc(C4=NC5(CC5)C(=O)N4CC4CN(C(=O)C5CC5)C4)c(C)c3)ccc2nn1C [compound 589, 6-{[1-(Cyclopropylcarbonyl)azetidin-3-yl]methyl}-5-{4-[3-(methoxymethyl)-2-methyl-2H-indazol-5-yl]-2-methylphenyl}-4,6-diazaspiro[2.4]hept-4-en-7-one] | 5.62 µM | 52% | 9.55 µM | > 10 µM |
| Cn1ccc(C(=O)N2CC[C@@H](CN3C(=O)C4(CCCC4)N=C3c3ccc(-c4ccc5occc5c4)cc3)C2)n1 [compound 118, 2-[4-(1-Benzofuran-5-yl)phenyl]-3-({(3R)-1-[(1-methyl-1H-pyrazol-3-yl)carbonyl]pyrrolidin-3-yl}methyl)-1,3-diazaspiro[4.4]non-1-en-4-one] | 1.66 µM | 101% | 0.355 µM | > 10 µM |
| O=C(O)c1ccc2ccc(-c3ccc(C4=NC5(CC5)C(=O)N4CC4CN(C(=O)C5CC5)C4)cc3)cc2n1 [compound 583, 7-[4-(6-{[1-(Cyclopropylcarbonyl)azetidin-3-yl]methyl}-7-oxo-4,6-diazaspiro[2.4]hept-4-en-5-yl)phenyl]quinoline-2-carboxylic acid] | 2.57 µM | 74% | 3.98 µM | > 10 µM |
| Cn1cc(CCO)c2cc(-c3ccc(C4=NC5(CC5)C(=O)N4CC4CN(C(=O)C5CC5)C4)c(F)c3)ccc21 [compound 568, 6-{[1-(Cyclopropylcarbonyl)azetidin-3-yl]methyl}-5-{2-fluoro-4-[3-(2-hydroxyethyl)-1-methyl-1H-indol-5-yl]phenyl}-4,6-diazaspiro[2.4]hept-4-en-7-one] | 0.0468 µM | 89% | 0.129 µM | 2.4 µM |
| Cn1nccc1-c1ccc(-c2ccc(C3=NC4(CC4)C(=O)N3CC3CN(C(=O)C4(O)CC4)C3)c(F)c2)cc1 [compound 577, 5-[3-Fluoro-4′-(1-methyl-1H-pyrazol-5-yl)biphenyl-4-yl]-6-({1-[(1-hydroxycyclopropyl)carbonyl]azetidin-3-yl}methyl)-4,6-diazaspiro[2.4]hept-4-en-7-one] | 2.45 µM | 67% | 2.34 µM | > 10 µM |
| Cc1cc(-c2cc(Cl)c3cn[nH]c3c2)ccc1C1=NC2(CC2)C(=O)N1CC1CN(C(=O)C2CC2)C1 [compound 629, 5-[4-(4-Chloro-1H-indazol-6-yl)-2-methylphenyl]-6-{[1-(cyclopropylcarbonyl)azetidin-3-yl]methyl}-4,6-diazaspiro[2.4]hept-4-en-7-one] | 7.76 µM | 55% | 7.41 µM | > 10 µM |
| O=C(C1CC1)N1CC(CN2C(=O)C3(CC3)N=C2c2ccc(-c3ccc4nn(CCO)cc4c3)cc2)C1 [compound 549, 6-{[1-(Cyclopropylcarbonyl)azetidin-3-yl]methyl}-5-{4-[2-(2-hydroxyethyl)-2H-indazol-5-yl]phenyl}-4,6-diazaspiro[2.4]hept-4-en-7-one] | 3.8 µM | 83% | 1.78 µM | > 10 µM |
| O=C(C1CC1)N1CC(CN2C(=O)C3(CC3)N=C2c2ccc(-c3ccc4c(cnn4C4CC4)c3)cc2F)C1 [compound 522, 6-{[1-(Cyclopropylcarbonyl)azetidin-3-yl]methyl}-5-[4-(1-cyclopropyl-1-indazol-5-yl)-2-fluorophenyl]-4,6-diazaspiro[2.4]hept-4-en-7-one] | 2.88 µM | 79% | 1.66 µM | > 10 µM |

Other lines, results leading:

| IC50 [1] | inhibition at 10 µM [2] | IC50 [2] | IC50 [3] | SMILES |
| --- | --- | --- | --- | --- |
| > 10 µM | 34% | > 10 µM | > 10 µM | Cc1cc(-c2cccc(S(C)(=O)=O)c2)ccc1C1=NC2(CC2)C(=O)N1CC1CN(C(=O)C2CC2)C1 [compound 775, 6-((1-(cyclopropanecarbonyl)azetidin-3-yl)methyl)-5-(3-methyl-3′-(methylsulfonyl)-[1,1′-biphenyl]-4-yl)-4,6-diazaspiro[2.4]hept-4-en-7-one] |
| > 10 µM | 27% | > 10 µM | > 10 µM | COC(=O)N1CC2(C1)N=C(c1ccc(-c3ccc4c(cnn4C)c3)cc1)N(C[C@@H]1CCN(C(=O)c3nccs3)C1)C2=O [compound 923, (R)-methyl 6-(4-(1-methyl-1H-indazol-5-yl)phenyl)-8-oxo-7-((1-(thiazole-2-carbonyl)pyrrolidin-3-yl)methyl)-2,5,7-triazaspiro[3.4]oct-5-ene-2-carboxylate] |
| > 10 µM | 10% | > 10 µM | > 10 µM | CS(=O)(=O)N1CCC(CN2C(=O)C3(CCOC3)N=C2c2ccc(-c3ccc4cccnc4c3)cc2)C1 (stereo not drawn) [compound 896, 3-((1-(methylsulfonyl)pyrrolidin-3-yl)methyl)-2-(4-(quinolin-7-yl)phenyl)-7-oxa-1,3-diazaspiro[4.4]non-1-en-4-one] |
| ~5.89 µM | 59% | 6.76 µM | > 10 µM | Cc1cc(-c2cccc(S(=O)(=O)C(C)C)c2)ccc1C1=NC2(CC2)C(=O)N1C[C@@H]1CCN(C(=O)C2CC2)C1 [compound 636, 6-{[(3R)-1-(Cyclopropylcarbonyl)pyrrolidin-3-yl]methyl}-5-{3-methyl-3′-[(1-methylethyl)sulfonyl]biphenyl-4-yl}-4,6-diazaspiro[2.4]hept-4-en-7-one] |
| > 10 µM | 38% | > 10 µM | > 10 µM | Cn1ncc2nc(-c3ccc(C4=NC5(CC5)C(=O)N4CC4CN(C(=O)C5CC5)C4)cc3)ccc21 [compound 792, 6-((1-(cyclopropanecarbonyl)azetidin-3-yl)methyl)-5-(4-(1-methyl-1H-pyrazolo[4,3-b]pyridin-5-yl)phenyl)-4,6-diazaspiro[2.4]hept-4-en-7-one] |
| > 10 µM | 34% | > 10 µM | > 10 µM | CCCc1ccc(-c2ccc(C3=NC4(CC4)C(=O)N3CC3CN(C(=O)C4CC4)C3)cc2)cn1 [compound 795, 6-((1-(cyclopropanecarbonyl)azetidin-3-yl)methyl)-5-(4-(6-propylpyridin-3-yl)phenyl)-4,6-diazaspiro[2.4]hept-4-en-7-one] |
| 2.51 µM | 74% | 2.57 µM | > 10 µM | Cn1c(-c2ccc(C3=NC4(CC4)C(=O)N3CC3CN(C(=O)C4CC4)C3)c(F)c2)nc2ccccc21 [compound 648, 6-{[1-(Cyclopropylcarbonyl)azetidin-3-yl]methyl}-5-[2-fluoro-4-(1-methyl-1H-benzimidazol-2-yl)phenyl]-4,6-diazaspiro[2.4]hept-4-en-7-one] |
